These results are taken from patent US8604016B2, “Heterocyclic inhibitors of glutaminase” (Calithera Biosciences Inc., priority 2011, dated 2013).

In one test the target is recombinant form of Glutaminase 1 (GAC) (Homo sapiens, UniProt O94925). In words: Recombinant Enzyme Assay (GAC coupled to GDH, NADH absorbance, no preincubation). Type of test: biochemical. As to conditions: no preincubation; read-out: GAC Delta N2 IC50 no. The procedure, abridged:
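GAC (4 nM) in Tris-HCl pH 8.0 with 150 mM K2HPO4, EDTA, BSA, DTT, plus 4 units/ml GDH and 4 mM ADP, without preincubation. Absorbance at 340 nm was read kinetically for 15 min at 20° C. Slopes (mAU/min) were compared with DMSO-only and control-compound wells on the same plate.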
Turning to `O=C(Cc1cccnc1)Nc1nnc(CCSCCc2nnc(NC(=O)Cc3cccnc3)s2)s1` [Compound 638], the IC50 amounted to 480 nM.

Still in this test, the particulars now being: no preincubation; read-out: GAC Delta N2 IC50 no preinc.
As for `NC(C(=O)Nc1nnc(CCCCc2nnc(NC(=O)C(N)C3CCCC3)s2)s1)C1CCCC1` (stereo not drawn) [Compound 131], the IC50 was found to be 19000 nM.

For the compound `O=C(Cc1ccncc1)Nc1nnc(CCSCCc2nnc(NC(=O)Cc3ccncc3)s2)s1` [Compound 361], the IC50 is 1800 nM.

Regarding `CC(C)(C)OC(=O)N1CCCC(CC(=O)Nc2nnc(CCSCCc3nnc(NC(=O)CC4CCCN(C(=O)OC(C)(C)C)C4)s3)s2)C1` (stereo not drawn) [Compound 112], the IC50 is 510 nM.

As to `O=C(Cc1ccccc1)Nc1nnc(CCCCc2nnc(NC(=O)[C@@H]3CCCC[C@H]3C(O)c3ccccc3)s2)s1` (stereo partly drawn) [Compound 304], the IC50 is 1200 nM.

For `O=C(Cc1csc2ccccc12)Nc1nnc(CCSCCc2nnc(NC(=O)Cc3csc4ccccc34)s2)s1` [Compound 212], the IC50 is over 20000 nM.

For the compound `O=C(Cc1cccc(Br)c1)Nc1nnc(CCCCc2nnc(NC(=O)Cc3cccc(Br)c3)s2)s1` [Compound 284], the IC50 is over 20000 nM.

On to `C=CCCC(=O)Nc1nnc(CCSCCc2nnc(NC(=O)CCC=C)s2)s1` [Compound 18], for which the IC50 worked out at 4500 nM.

For `O=C(CC1CCCC1)Nc1nnc(CCCCc2nnc(NC(=O)CC3CCCC3)s2)s1` [Compound 61], the IC50 is over 50000 nM.

As for `CC(=O)OC(C(=O)Nc1nnc(CCCc2nnc(NC(=O)C(OC(C)=O)c3ccccc3)s2)s1)c1ccccc1` (stereo not drawn) [Compound 171], the IC50 was over 20000 nM.

In the case of `O=C(CCN1CCOCC1)OCC(C(=O)Nc1nnc(CCCCc2nnc(NC(=O)C(CO)c3ccccc3)s2)s1)c1ccccc1` (stereo not drawn) [Compound 228, 3-((5-{4-[5-(3-hydroxy-2-phenylpropanamido)-1,3,4-thiadiazol-2-yl]butyl}-1,3,4-thiadiazol-2-yl)amino)-3-oxo-2-phenylpropyl 3-morpholinopropanoate], the IC50 was 570 nM.

Regarding `CC(C)(C)OC(=O)NC(C(=O)Nc1nnc(CCSCCc2nnc(NC(=O)C(NC(=O)OC(C)(C)C)C3CCCC3)s2)s1)C1CCCC1` (stereo not drawn) [Compound 110], the IC50 was over 20000 nM.

Consider `O=C(Cc1ccccc1)Nc1nnc(CCSCc2nnc(NC(=O)Cc3ccccn3)s2)s1` [Compound 373], for which the IC50 worked out at 170 nM.

Regarding `O=C(Cc1ccccc1)Nc1nnc(CCSCc2nnc(NC(=O)Cc3ccccc3)s2)s1` [Compound 199], the IC50 is 120 nM.

`O=C(Nc1nnc(CCCc2nnc(NC(=O)C(O)Cc3ccccc3)s2)s1)C(O)Cc1ccccc1` (stereo not drawn) [Compound 170]: the IC50 worked out at 7400 nM.

For the compound `COc1ccccc1CC(=O)Nc1nnc(CCSCCc2nnc(NC(=O)Cc3ccccc3OC)s2)s1` [Compound 219], the IC50 is 170 nM.

In the case of `O=C(Nc1nnc(CCCCc2nnc(NC(=O)C(O)c3ccccc3Br)s2)s1)C(O)c1ccccc1Br` (stereo not drawn) [Compound 287], the IC50 is 570 nM.

In the case of `CCCC(=O)OCN(C(=O)Cc1ccccc1)c1nnc(CCSCCc2nnc(N(COC(=O)CCC)C(=O)Cc3ccccc3)s2)s1` [Compound 8], the IC50 is over 50000 nM.

Regarding `O=C(Cc1ccccc1)Nc1nnc(CCNCCc2nnc(NC(=O)Cc3ccccc3)s2)s1` [Compound 149, N,N′-(5,5′-(azanediyl-bis(ethane-2,1-diyl))-bis(1,3,4-thiadiazole-5,2-diyl))-bis(2-phenylacetamide) trifluoroacetic acid], the IC50 was determined as 15000 nM.

On to `O=C(Nc1nnc(CCSCCc2nnc(NC(=O)C3CCCO3)s2)s1)C1CCCO1` (stereo not drawn) [Compound 39], for which the IC50 stood at 26000 nM.

Take `O=C(Cc1cccs1)Nc1nnc(CCSCc2nnc(NC(=O)Cc3cccs3)s2)s1` [Compound 237]: the IC50 worked out at 200 nM.

`O=C(Cc1cc2ccccc2o1)Nc1nnc(CCCCc2nnc(NC(=O)Cc3cc4ccccc4o3)s2)s1` [Compound 194]: the IC50 is 10000 nM.

For the compound `O=C(Cc1cc2ccccc2s1)Nc1nnc(CCSCCc2nnc(NC(=O)Cc3cc4ccccc4s3)s2)s1` [Compound 207], the IC50 was 13000 nM.

As for `O=C(Nc1nnc(CCSCCc2nnc(NC(=O)C3Cc4cc(Cl)ccc4O3)s2)s1)C1Cc2cc(Cl)ccc2O1` (stereo not drawn) [Compound 189], the IC50 was determined as 4400 nM.

In the case of `CC1(C(=O)Nc2nnc(CCCCc3nnc(NC(=O)C4(C)CCCO4)s3)s2)CCCO1` (stereo not drawn) [Compound 123], the IC50 was 12000 nM.

For the compound `CC1(C)OCC(C(=O)Nc2nnc(CCCCc3nnc(NC(=O)C4(c5ccccc5)COC(C)(C)O4)s3)s2)(c2ccccc2)O1` (stereo not drawn) [Compound 277], the IC50 is over 20000 nM.

With `O=C(Cc1ccccn1)Nc1nnc(CCSCCc2nnc(NC(=O)Cc3ccccn3)s2)s1` [Compound 308], the IC50 was 600 nM.

Regarding `O=C(Nc1nnc(CCCCc2nnc(NC(=O)C3CCCC3)s2)s1)C1CCCC1` [Compound 53], the IC50 is over 50000 nM.

Regarding `O=C(Nc1nnc(CCSCCc2nnc(NC(=O)C3Oc4ccccc4O3)s2)s1)C1Oc2ccccc2O1` [Compound 134], the IC50 stood at 14000 nM.

For the compound `CC(C(=O)Nc1nnc(CCCCc2nnc(NC(=O)C(C)c3ccccc3Cl)s2)s1)c1ccccc1Cl` (stereo not drawn) [Compound 274], the IC50 was determined as 750 nM.

With `COCC(C(=O)Nc1nnc(CCSCCc2nnc(NC(=O)C(COC)c3ccccc3)s2)s1)c1ccccc1` (stereo not drawn) [Compound 204], the IC50 stood at 920 nM.

For `O=C(Cc1ccccc1Cl)Nc1nnc(CCSCCc2nnc(NC(=O)Cc3ccccc3Cl)s2)s1` [Compound 255], the IC50 was found to be 380 nM.

For `O=C(Nc1nnc(CCCCc2nnc(NC(=O)C3CC(O)c4ccccc43)s2)s1)C1CC(O)c2ccccc21` (stereo not drawn) [Compound 94], the IC50 turned out to be 280 nM.

In the case of `O=C(Cc1ccccc1)Nc1nnc(C[C@@H]2C[C@H]2Cc2nnc(NC(=O)Cc3ccccc3)s2)s1` [Compound 1035], the IC50 is over 20000 nM.

Regarding `O=C(Nc1nnc(CCCCc2nnc(NC(=O)[C@H](O)c3ccccc3)s2)s1)[C@H](O)c1ccccc1` [Compound 80], the IC50 was 1800 nM.

On to `O=C(Cc1cccc(Cn2cccn2)c1)Nc1nnc(CCCCc2nnc(NC(=O)Cc3cccc(Cn4cccn4)c3)s2)s1` [Compound 362], for which the IC50 stood at 350 nM.

As for `O=C(Cc1ccccc1)Nc1nnc(CCSCc2nnc(NC(=O)C(O)c3cccc(Cl)c3)s2)s1` (stereo not drawn) [Compound 376], the IC50 was 350 nM.

`CC(C)[C@H](N)C(=O)OCC(C(=O)Nc1nnc(CCCCc2nnc(NC(=O)C(COC(=O)[C@@H](N)C(C)C)c3ccccc3)s2)s1)c1ccccc1` (stereo partly drawn) [Compound 291]: the IC50 was 1500 nM.

Take `COC(C(=O)Nc1nnc(CCCCc2nnc(NC(=O)C(OC)c3ccccc3)s2)s1)c1ccccc1` (stereo not drawn) [Compound 65]: the IC50 was determined as 1300 nM.

Regarding `O=C(Cc1ccc2ncccc2c1)Nc1nnc(CCSCCc2nnc(NC(=O)Cc3ccc4ncccc4c3)s2)s1` [Compound 268], the IC50 was 600 nM.

As for `CC(=O)OC(C(=O)Nc1nnc(CCCCc2nnc(NC(=O)C(OC(C)=O)c3ccccc3)s2)s1)c1ccccc1` (stereo not drawn) [Compound 173], the IC50 was 24000 nM.

Consider `O=C(Cc1coc2ccccc12)Nc1nnc(CCCCc2nnc(NC(=O)Cc3coc4ccccc34)s2)s1` [Compound 222], for which the IC50 was over 20000 nM.

As to `CCN(C(=O)Cc1ccccc1)c1nnc(CCSCCc2nnc(N(CC)C(=O)Cc3ccccc3)s2)s1` [Compound 150], the IC50 is over 20000 nM.

With `O=CO[C@@H](C(=O)Nc1nnc(CCCCc2nnc(NC(=O)[C@H](OC=O)c3ccccc3)s2)s1)c1ccccc1` [Compound 68], the IC50 worked out at 4900 nM.

Still in this test, the particulars now being: read-out: GAC Delta N2 IC50 no preinc.
As for `O=C(Cc1ccccc1CO)Nc1nnc(CCCCc2nnc(NC(=O)Cc3ccccc3CO)s2)s1` [Compound 208], the IC50 turned out to be 170 nM.
